ChEMBL document CHEMBL5233204, “Expanding the repertoire of methanocarba nucleosides from purinergic signaling to diverse targets” (RSC Med Chem, 2021)
pIC50: −log10 of the molar value. Values belong to the compound of their own block, whether it stands above or below them.

What was measured:
[1] = system: Human alphaherpesvirus 1; assay: Antiviral activity against HSV-1 by plaque reduction neutralization test; assay type: functional, organism-based
[2] = system: Human alphaherpesvirus 2; assay: Antiviral activity against HSV-2 by plaque reduction neutralization test; assay type: functional, organism-based
[3] = target: T1, P-gp (ABCB1) (Homo sapiens, UniProt P08183); assay: Inhibition of P-gp (unknown origin) ATPase activity at 10 uM relative to control
T1 sequence (P08183 whole entry): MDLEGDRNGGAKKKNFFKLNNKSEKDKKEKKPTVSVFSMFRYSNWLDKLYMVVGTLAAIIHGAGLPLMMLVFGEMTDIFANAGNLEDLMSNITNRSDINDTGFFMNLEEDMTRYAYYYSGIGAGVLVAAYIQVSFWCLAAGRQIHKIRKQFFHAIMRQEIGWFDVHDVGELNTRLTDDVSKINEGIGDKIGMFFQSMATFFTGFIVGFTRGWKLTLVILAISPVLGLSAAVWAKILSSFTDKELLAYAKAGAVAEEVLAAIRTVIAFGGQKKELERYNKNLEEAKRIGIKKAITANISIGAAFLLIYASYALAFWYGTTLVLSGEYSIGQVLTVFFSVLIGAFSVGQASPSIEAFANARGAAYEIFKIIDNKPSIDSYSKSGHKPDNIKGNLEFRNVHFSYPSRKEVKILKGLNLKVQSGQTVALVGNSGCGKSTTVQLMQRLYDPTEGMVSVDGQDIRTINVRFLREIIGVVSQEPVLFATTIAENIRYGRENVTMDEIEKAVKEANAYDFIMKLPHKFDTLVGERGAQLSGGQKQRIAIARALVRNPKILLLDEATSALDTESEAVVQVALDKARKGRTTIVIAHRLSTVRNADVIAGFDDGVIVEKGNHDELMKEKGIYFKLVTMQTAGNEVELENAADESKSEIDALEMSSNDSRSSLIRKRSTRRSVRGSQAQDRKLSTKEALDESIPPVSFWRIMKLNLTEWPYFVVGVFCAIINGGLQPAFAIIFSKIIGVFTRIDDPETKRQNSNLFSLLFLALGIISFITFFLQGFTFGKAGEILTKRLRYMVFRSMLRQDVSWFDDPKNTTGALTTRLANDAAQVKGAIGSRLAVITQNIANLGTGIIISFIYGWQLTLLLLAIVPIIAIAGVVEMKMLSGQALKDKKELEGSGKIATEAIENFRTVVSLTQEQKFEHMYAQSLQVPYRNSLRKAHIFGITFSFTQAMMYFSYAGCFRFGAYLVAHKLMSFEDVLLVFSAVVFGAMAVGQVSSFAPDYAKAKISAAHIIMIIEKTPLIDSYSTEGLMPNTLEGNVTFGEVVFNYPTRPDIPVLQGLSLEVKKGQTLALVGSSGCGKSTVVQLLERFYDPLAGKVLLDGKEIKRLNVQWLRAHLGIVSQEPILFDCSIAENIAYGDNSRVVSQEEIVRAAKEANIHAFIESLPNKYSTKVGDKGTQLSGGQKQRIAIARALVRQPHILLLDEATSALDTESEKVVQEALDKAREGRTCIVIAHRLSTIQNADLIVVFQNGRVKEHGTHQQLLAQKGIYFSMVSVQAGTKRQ

[4] = target: T1, P-gp (ABCB1); assay: Activation of P-gp (unknown origin) ATPase activity at 10 uM relative to control; settings: read-out: Activity

pIC50 [1]: 7.70 | pIC50 [2]: 6.60
SMILES: Cc1cn([C@H]2C[C@H](O)[C@]3(CO)C[C@H]23)c(=O)[nH]c1=O [(NORTH)-METHANOCARBATHYMIDINE]

inhibition at 10 µM [3]: 53%
SMILES: CNC(=O)[C@]12C[C@@H]1[C@@H](n1cnc3c(N[C@@H]4C[C@H]4c4ccc(F)c(F)c4)nc(C#Cc4ccccc4)nc31)[C@H](O)[C@@H]2O

activity at 10 µM [4]: 31%
SMILES: CNC(=O)[C@]12C[C@@H]1[C@@H](n1cnc3c(NCc4cccc(Cl)c4)nc(C#Cc4ccccc4)nc31)[C@H](O)[C@@H]2O
